Measured values from US10822337B2, “TGF-β inhibitorC” (Rigel Pharmaceuticals, Inc., priority 2015, dated 2020).
pIC50: −log10 of the molar value.

How the values were obtained:
[1] = system: TGF-β signaling (TGF-β pSMAD, MPC-11); test: AlphaScreen SureFire SMAD3 (p-Ser423/425) assay, inhibition of TGF-β signaling; assay type: cell-based; settings: Mus musculus, p-SMAD-3 (Ser423/425) in cell lysate after TGF-β stimulation
Excerpt: (§1) Example 2: AlphaScreen® SureFire® SMAD3 (p-Ser423/425) Assay
(§2) The p-SMAD-3 (Ser423/425) SureFire® assay has been designed to measure the phosphorylation of endogenous cellular p-SMAD-3 (Ser423/425) in cell lysates and is a system for the screening of both modulators of receptor activation (e.g. agonists and antagonists) as well as agents acting intracellularly, such as small molecule inhibitors of upstream events. The assay will measure p-SMAD-3 (Ser423/425) activation by either cloned or endogenous receptors, and can be applied to primary cells.
(§3) 1× Lysis buffer: 1 ml of 5× Lysis buffer was diluted with 4 ml of sterile water. After dilution, excess 1× Lysis buffer can be frozen and thawed up to 5 times without loss in activity.
(§4) P-SMAD-3 (Ser423/425) SureFire® Assay Protocols
(§5) Step A: Preparation of Buffers
(§6) Activation buffer: The buffer was warmed slowly to 37° C. and gently mixed to re-suspend. Activation buffer can be stored at room temperature with no loss in activity.
(§7) Reaction buffer: The buffer was kept at 4° C. while in use.
(§8) AlphaScreen® Protein A IgG Kit: The kit was stored at 4° C. in the dark.
(§9) Reaction buffer+Activation buffer+AlphaScreen® Acceptor beads: Reaction buffer (40 parts), Activation Buffer (10 parts) and Acceptor beads (1 part) were mixed and the mixture was stored at room temperature and used the same day. Mixture was added to 384-well plates; excess mixturewas discarded.
(§10) Dilution buffer+AlphaScreen® Donor beads: Dilution buffer (20 parts) and Donor beads (1 part) were mixed and the mixture was stored at room temperature and used the same day. Excess mixture was discarded.
(§11) Assay control samples: After reconstitution in 250 μl of water, lysates were at −20° C. in single use aliquots.
(§12) Step B: Preparation of Samples and Cells
(§13) 96-well Assay Protocol for 293FT and RMS13 adherent cells can be carried out manually or in high throughput with liquid handling robots.
(§14) The cells (80 μL of cells for 96 well plates) were plated in collagen coated tissue culture plates in RPMI or FreeStyle medium (Invitrogen) and incubated overnight. For manual analysis, 6 plates for GDF8, 6 plates for TGFβ, and optionally 6 plates for Alk5ca(ALKS constitutively active) were used.
(§15) The compound dilution plates were prepared as follows: 12 μL of DMSO was transferred into first column of 96-well plate, and 16 μL of DMSO was transferred into columns 2-12 of the 96-well plate. 12 μL of compound solution was transferred into first column of the DMSO-containing 96-well plate. Three-fold dilution was performed up to column 10 of the DMSO-containing 96-well plate.
(§16) Step C: Treatment and Analysis
(§17) The plate containing cells were treated with compounds for about 10 minutes, and then ligand was added. GDF8 or TGFb was added to plates to stimulate. 293FL cells were stimulatedfor 90 minutes at 37° C.; and RMS13 cells were stimulated for 60 minutes at 37° C. The medium was then removed from the cells, and 1× Lysis Buffer (about 25 μL) was added and the plate was gently agitated on plate shaker for 5-10 minutes.
(§18) The lysate (5 μL) was then placed into 384-well shallow plates avoiding the generation of bubbles. To this, the Reaction Buffer+Activation Buffer+AlphaScreen® Acceptor beadsmixture (5 μL) was added. The plate was sealed with adhesive cover and shielded from light (e.g., with metal foil), and agitated gently on plate shaker for 2 hours at room temperature.
(§19) Dilution buffer+AlphaScreen® Donor beads (2 μL) was then added, and the plate was intubated on the plate shaker for an additional 1½ hours. After completion, the plate was read on Synergy-4 or Enspire plate reader, using AlphaScreen® pSMAD3® settings.
(§20) Representative results for inhibition of GDF8 (data=GDF pSMAD (MPC11) (μM)) and TGF-β (data=TGF-β pSMAD (MPC-11) (μM)) signaling are shown in Table 1: […]

[2] = system: GDF8 signaling (GDF pSMAD, MPC11); test: AlphaScreen SureFire SMAD3 (p-Ser423/425) assay, inhibition of GDF8 signaling; assay type: cell-based; settings: Mus musculus, MPC-11, p-SMAD-3 (Ser423/425) in cell lysate after GDF8 stimulation
Excerpt: as §1, §2, §3, §4, §5, §6, §7, §8, §9, §10, §11, §12, §13, §14, §15, §16, §17, §18, §19, §20

SMILES | pIC50 [1] | pIC50 [2]
Fc1ccc(F)c(-c2nn3c(c2-c2ccc4[nH]ncc4c2)CCC3)c1 [Compound 1, 5-(2-(2,5-difluorophenyl)-5,6-dihydro-4H-pyrrolo[1,2-b]pyrazol-3-yl)-1H-indazole] | 5.69 | 6.23
Cc1cc(-c2nn3c(c2-c2ccc4[nH]ncc4c2)CCC3)ccc1F [Compound 2, 5-(2-(4-Fluoro-3-methylphenyl)-5,6-dihydro-4H-pyrrolo[1,2-b]pyrazol-3-yl)-1H-indazole] | 6.85 | 7.35
Cc1cc(-c2nn3c(c2-c2ccc4cn[nH]c4c2)CCC3)ccc1F [Compound 3, 6-(2-(4-Fluoro-3-methylphenyl)-5,6-dihydro-4H-pyrrolo[1,2-b]pyrazol-3-yl)-1H-indazole] | 6.64 | 7.19
Cc1cc(-c2nn3c(c2-c2ccnc4[nH]ccc24)CCC3)ccc1F [Compound 4, 4-(2-(4-Fluoro-3-methylphenyl)-5,6-dihydro-4H-pyrrolo[1,2-b]pyrazol-3-yl)-1H-pyrrolo[2,3-b]pyridine] | 5.98 | 6.22
Fc1ccc(-c2nn3c(c2-c2ccc4[nH]ncc4c2)CCC3)cc1 [Compound 5, 5-(2-(4-Fluorophenyl)-5,6-dihydro-4H-pyrrolo[1,2-b]pyrazol-3-yl)-1H-indazole] | 6.30 | 6.89
Fc1ccc(-c2nn3c(c2-c2ccc4cn[nH]c4c2)CCC3)cc1 [Compound 6, 6-(2-(4-Fluorophenyl)-5,6-dihydro-4H-pyrrolo[1,2-b]pyrazol-3-yl)-1H-indazole] | 5.98 | 6.70
Cc1cccc(-c2nn3c(c2-c2ccc4[nH]ncc4c2)CCC3)c1 [Compound 7, 5-(2-(m-Tolyl)-5,6-dihydro-4H-pyrrolo[1,2-b]pyrazol-3-yl)-1H-indazole] | 7.40 | 7.82
Cc1cccc(-c2nn3c(c2-c2ccc4cn[nH]c4c2)CCC3)c1 [Compound 8, 6-(2-(m-Tolyl)-5,6-dihydro-4H-pyrrolo[1,2-b]pyrazol-3-yl)-1H-indazole] | 7.10 | 7.67
Cc1cc(-c2nn3c(c2-c2ccc4nc[nH]c4c2)CCC3)ccc1F [Compound 9, 6-(2-(4-Fluoro-3-methylphenyl)-5,6-dihydro-4H-pyrrolo[1,2-b]pyrazol-3-yl)-1H-benzo[d]imidazole] | 6.82 | 7.29
Cc1cccc(-c2nn3c(c2-c2ccc4c(cnn4C)c2)CCC3)c1 [Compound 10, 1-Methyl-5-(2-(m-tolyl)-5,6-dihydro-4H-pyrrolo[1,2-b]pyrazol-3-yl)-1H-indazole] | 5.59 | 6.19
Cc1cccc(-c2nn3c(c2-c2ccc4ncsc4c2)CCC3)c1 [Compound 12, 6-(2-(m-Tolyl)-5,6-dihydro-4H-pyrrolo[1,2-b]pyrazol-3-yl)benzo[d]thiazole] | 6.93 | 7.33
Cn1cnc2ccc(-c3c(-c4ccc(F)cc4)nn4c3CCC4)cc21 [Compound 13, 6-(2-(4-Fluorophenyl)-5,6-dihydro-4H-pyrrolo[1,2-b]pyrazol-3-yl)-1-methyl-1H-benzo[d]imidazole] | 6.74 | 7.10
Fc1ccc(-c2nn3c(c2-c2ccc4ncsc4c2)CCC3)cc1 [Compound 14, 6-(2-(4-Fluorophenyl)-5,6-dihydro-4H-pyrrolo[1,2-b]pyrazol-3-yl)benzo[d]thiazole] | 6.01 | 6.53
Cc1cc(-c2nn3c(c2-c2ccc4c(cnn4C)c2)CCC3)ccc1F [Compound 15, 5-(2-(4-Fluoro-3-methylphenyl)-5,6-dihydro-4H-pyrrolo[1,2-b]pyrazol-3-yl)-1-methyl-1H-indazole] | 5.56 | 6.01
COc1ccc(-c2nn3c(c2-c2ccc4ncccc4c2)CCC3)cc1 [Compound 101, 6-(2-(4-Methoxyphenyl)-5,6-dihydro-4H-pyrrolo[1,2-b]pyrazol-3-yl)quinoline] |  | 5.61
